# pIC50: −log10 of the molar value.
# Molecular target: METTL1/WDR4 (Homo sapiens, UniProt Q9UBP6)
# Assay: METTL1 Assay (METTL1 biochemical assay)
# Conditions: METTL1 biochemical assay; read-out: METTL1 IC50
# Experimental: Assays were performed in a 25 μl-volume in 384-well V-bottom polypropylene microplates (Greiner Bio-One, cat. No. 781280) at ambient temperature. Optimized 1× assay buffer was 20 mM HEPES pH 7.5, 50 mM KCl, 250 μM MgCl2, 1 mM DTT, 0.01% Tween, 0.01% BSG, 0.004 U/μl RNAseOUT (cat. No. 10777019, ThermoFisher Scientific, Waltham, Mass.). For compound screening METTL1/WDR4 (final concentration, f.c.=6.25 nM) was added using a Multidrop Combi (ThermoFisher Scientific, Waltham, Mass.) and preincubated for 5 min. Reactions were started by adding 3′ biotinylated RNA ([…]-biotin) (f.c.=25 nM) and 3H-SAM (f.c.=60 nM) substrates. Reactions proceeded for 20 minutes and were quenched with excess non-radioactive SAM (f.c.=15 μM). The reactions were then transferred to streptavidin-coated flashplates and incubated for 2 hours at 25° C. Following two washing cycles with 0.1% Tween-20, the plates were sealed and read on a TopCount (PerkinElmer, Waltham, Mass.) plate-based scintillation counter. For determination of kinetic parameters, reaction times were optimized so that measurements were taken during the initial velocity phase of the reaction.
# Chain of METTL1/WDR4 (Q9UBP6 whole entry, species assumed): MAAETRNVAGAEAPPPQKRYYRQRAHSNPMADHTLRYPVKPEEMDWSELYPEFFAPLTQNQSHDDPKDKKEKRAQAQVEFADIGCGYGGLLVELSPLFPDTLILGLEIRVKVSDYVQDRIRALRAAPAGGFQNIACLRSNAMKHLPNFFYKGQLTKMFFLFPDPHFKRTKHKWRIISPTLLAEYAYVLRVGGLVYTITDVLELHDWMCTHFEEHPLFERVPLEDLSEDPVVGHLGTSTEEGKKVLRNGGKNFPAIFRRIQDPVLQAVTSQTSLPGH
# Chain of METTL1/WDR4 (P57081 whole entry partner, species assumed): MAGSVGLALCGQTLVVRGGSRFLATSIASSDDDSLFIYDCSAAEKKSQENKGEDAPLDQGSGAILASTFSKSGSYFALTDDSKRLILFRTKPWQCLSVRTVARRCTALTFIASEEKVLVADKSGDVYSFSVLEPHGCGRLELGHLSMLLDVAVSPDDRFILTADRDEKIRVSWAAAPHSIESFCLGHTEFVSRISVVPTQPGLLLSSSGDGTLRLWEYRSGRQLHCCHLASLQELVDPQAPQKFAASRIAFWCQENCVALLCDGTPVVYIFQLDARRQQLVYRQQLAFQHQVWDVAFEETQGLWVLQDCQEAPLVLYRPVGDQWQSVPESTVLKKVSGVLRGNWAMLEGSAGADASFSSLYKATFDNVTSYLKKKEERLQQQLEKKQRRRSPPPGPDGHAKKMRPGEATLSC
row,Structure (SMILES),pIC50
1,CNc1ccc2ccc(OC[C@H]3O[C@@H](n4cc(-c5cccc(C)n5)c5c(N)ncnc54)[C@@H](F)[C@@H]3O)cc2n1 [I-229],< 6.00
2,CNc1ccc2ccc(OC[C@H]3O[C@@H](n4cc(-c5ccc(C)cn5)c5c(N)ncnc54)[C@@H](F)[C@@H]3O)cc2n1 [I-231],< 6.00

# Same assay, conditions: read-out: METTL1 IC50; METTL1 biochemical assay
row,Structure (SMILES),pIC50
1,CNc1ccc2cc(CC[C@H]3C[C@@H](n4ccc5c(N)ncnc54)[C@H](O)[C@@H]3O)ccc2n1 [I-111],< 6.00
2,Nc1ccc2cc(CC[C@H]3C[C@@H](n4ccc5c(N)ncnc54)[C@H](O)[C@@H]3O)ccc2n1 [I-125],< 6.00
3,Nc1ncnc2c1ccn2[C@@H]1C[C@H](CCc2ccc3nccnc3c2)[C@@H](O)[C@H]1O [I-130],< 6.00
4,CNc1ccc2ccc(OC[C@H]3O[C@@H](n4cc(CC5CC5)c5c(N)ncnc54)[C@H](O)[C@@H]3O)cc2n1 [I-142],< 6.00

# Tested on: MOLM-13 cells
# Assay: MOLM-13 48 Hour Cell Proliferation Assay
# Format: cell-based
# Conditions: not given
# Experimental: MOLM-13 (DSMZ) cells were seeded at 1000 cells per well in a volume of 44 μL in a Falcon 384-well tissue culture treated clear bottom microplate in RPMI 1640 media containing 10% fetal bovine serum using a Multidrop Combi (ThermoFisher Scientific). Cells were incubated overnight at 37° C. in a humidified tissue culture incubator. The Mosquito® HTS Liquid Handler was used to make a compound/media intermediate plate by aliquoting 1 μL of compound from the initial compound dilution plate (concentrations ranging from 10.0 mM to 38.0 nM in 100% DMSO) into a V bottom 384-well screen matrix plate containing 49 μL of media containing the appropriate serum (50-fold dilution, 2% DMSO). The Apricot liquid handling system was used to transfer 6.2 μL compounds from the intermediate plate into the Falcon 384-well tissue culture plate containing 44 μL cells (10-point, 4-fold dilution spanning concentrations 25.0 μM to […], 0.25% DMSO final), and placed in a humidified tissue culture incubator at 37° C. After 48 hours, 25 μL of Cell Titer-Glo reagent (Promega) was added to each well using a Multidrop Combi. The plate was protected from light and placed on an IKA plate shaker for at 300 rpm for 10 minutes at room temperature. The plate was read on an EnVision plate reader (Perkin Elmer) using the Ultra Sensitive Luminescence protocol. Data analysis was performed by normalizing the raw luminescence units to an average of the positive control values for staurosporine (100% cell death) and the negative control values for DMSO (0% cell death). An IC50 was calculated using a 4-parameter logistic nonlinear regression model in GraphPad Prism.
row,Structure (SMILES),pIC50
1,Nc1ncnc2c1c([C@H]1CCCO1)cn2[C@@H]1O[C@H](COc2ccc3ccc(N4CCC4)nc3c2)[C@@H](O)[C@@H]1F [I-225],5.00 to 6.00

# Same assay, conditions: Homo sapiens
row,Structure (SMILES),pIC50
1,CNc1ccc2ccc(OC[C@H]3O[C@@H](n4cc(CC5CC5)c5c(N)ncnc54)[C@H](O)[C@@H]3O)cc2n1 [I-142],5.00 to 6.00
2,CNc1ccc2ccc(OC[C@H]3O[C@@H](n4cc(-c5cccc(C)n5)c5c(N)ncnc54)[C@@H](F)[C@@H]3O)cc2n1 [I-229],5.00 to 6.00
3,CNc1ccc2ccc(OC[C@H]3O[C@@H](n4cc(-c5ccc(C)cn5)c5c(N)ncnc54)[C@@H](F)[C@@H]3O)cc2n1 [I-231],> 6.00

# Molecular target: METTL3/METTL14 (Homo sapiens, UniProt Q86U44)
# Assay: METTL3-14 Standard Enzyme Assay (METTL3 biochemical assay)
# Conditions: not given
# In short: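 Tritium transfer from ³H-SAM (100 nM) to biotinylated RNA (100 nM) captured on streptavidin flashplates and counted by scintillation. Enzyme complex (2.5 nM) with compound, 5 min preincubation, 30 min reaction at ambient temperature, HEPES pH 7.5 buffer, stopped by excess unlabeled SAM.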
# Chain of METTL3/METTL14 (Q86U44 whole entry, species assumed): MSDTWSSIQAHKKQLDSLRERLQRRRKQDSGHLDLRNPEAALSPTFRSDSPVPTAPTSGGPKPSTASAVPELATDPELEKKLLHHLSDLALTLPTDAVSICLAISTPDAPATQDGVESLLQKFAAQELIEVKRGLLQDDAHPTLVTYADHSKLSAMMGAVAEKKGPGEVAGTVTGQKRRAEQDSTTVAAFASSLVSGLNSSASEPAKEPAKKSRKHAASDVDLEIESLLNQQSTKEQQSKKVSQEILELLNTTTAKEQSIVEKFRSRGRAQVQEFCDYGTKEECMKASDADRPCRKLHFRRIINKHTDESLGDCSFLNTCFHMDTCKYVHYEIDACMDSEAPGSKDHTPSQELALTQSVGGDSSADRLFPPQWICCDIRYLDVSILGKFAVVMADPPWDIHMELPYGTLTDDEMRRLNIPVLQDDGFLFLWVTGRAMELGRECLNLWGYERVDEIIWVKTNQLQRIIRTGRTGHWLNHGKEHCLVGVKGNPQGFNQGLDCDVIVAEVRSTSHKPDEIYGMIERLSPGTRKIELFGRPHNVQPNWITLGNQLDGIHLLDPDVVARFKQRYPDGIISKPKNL
# Chain of METTL3/METTL14 (Q9HCE5 whole entry partner, species assumed): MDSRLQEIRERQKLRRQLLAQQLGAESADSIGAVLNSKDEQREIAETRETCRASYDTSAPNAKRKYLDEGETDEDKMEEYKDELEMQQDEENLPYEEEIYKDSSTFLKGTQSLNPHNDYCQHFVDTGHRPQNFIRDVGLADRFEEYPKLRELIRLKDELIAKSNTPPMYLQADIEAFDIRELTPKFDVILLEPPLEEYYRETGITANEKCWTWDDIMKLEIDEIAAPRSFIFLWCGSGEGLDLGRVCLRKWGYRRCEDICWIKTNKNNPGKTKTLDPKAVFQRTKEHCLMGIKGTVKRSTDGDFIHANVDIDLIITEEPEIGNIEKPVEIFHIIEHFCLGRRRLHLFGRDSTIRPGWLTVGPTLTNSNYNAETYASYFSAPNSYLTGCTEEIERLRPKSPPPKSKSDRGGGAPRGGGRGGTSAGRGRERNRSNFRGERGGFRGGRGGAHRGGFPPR
row,Structure (SMILES),pIC50
1,CNc1ccc2ccc(OC[C@H]3O[C@@H](n4cc(-c5cccc(C)n5)c5c(N)ncnc54)[C@@H](F)[C@@H]3O)cc2n1 [I-229],> 8.00
2,CNc1ccc2ccc(OC[C@H]3O[C@@H](n4cc(-c5ccc(C)cn5)c5c(N)ncnc54)[C@@H](F)[C@@H]3O)cc2n1 [I-231],> 8.00

# Same assay, conditions: METTL3 biochemical assay; read-out: METTL3 IC50
row,Structure (SMILES),pIC50
1,CNc1ccc2cc(CC[C@H]3C[C@@H](n4ccc5c(N)ncnc54)[C@H](O)[C@@H]3O)ccc2n1 [I-111],6.00 to 7.00
2,Nc1ccc2cc(CC[C@H]3C[C@@H](n4ccc5c(N)ncnc54)[C@H](O)[C@@H]3O)ccc2n1 [I-125],6.00 to 7.00
3,CNc1ccc2ccc(OC[C@H]3O[C@@H](n4cc(CC5CC5)c5c(N)ncnc54)[C@H](O)[C@@H]3O)cc2n1 [I-142],> 8.00

# Tested on: MOLM-13 cells
# Assay: MOLM-13 96 Hour Cell Proliferation Assay
# Format: cell-based
# Conditions: not given
# Experimental: MOLM-13 (DSMZ) cells were seeded at 600 cells per well in a volume of 44 μL in a Greiner Bio-One CELLSTAR™ 384 Well Polystyrene Cell Culture clear bottom microplate in RPMI 1640 media containing 10% fetal bovine serum using a Multidrop Combi (ThermoFisher Scientific). Cells were incubated overnight at 37° C. in a humidified tissue culture incubator. To prevent evaporation or to reduce edge effect, add 50 μL or more H2O to an empty plate, cover, and place on top of the cell plates. The Mosquito® HTS Liquid Handler was used to make a compound/media intermediate plate by aliquoting 1 μL of compound from the initial compound dilution plate (concentrations ranging from 10.0 mM to 38.0 nM in 100% DMSO) into Bio-One 384-well polypropylene conical bottom microplate containing 49 μL of media containing the appropriate serum (50-fold dilution, 2% DMSO, compound concentrations ranging from 200.0 μM and […]). The Apricot liquid handling system was used to transfer 6.2 μL compounds from the intermediate plate into the seeding plate containing 44 μL cells (8-fold dilution spanning concentrations 25.0 μM to […], 0.25% DMSO final), and placed in a humidified tissue culture incubator at 37° C. After 96 hours, 25 μL of Cell Titer-Glo reagent (Promega) was added to each well using an Integra liquid handling system. The plate was protected from light using TopSeal-A (Black) film over the entire plate, added White Bottom seal film on the bottom of the entire plate for a better reading on the Envision, and placed on an IKA plate shaker for at 300 rpm for 10 minutes at room temperature. The plate was read on an EnVision plate reader (Perkin Elmer) using the Ultra Sensitive Luminescence protocol. Data analysis was performed by normalizing the raw luminescence units to an average of the positive control values for staurosporine (100% cell death) and the negative control values for DMSO (0% cell death). An IC50 was calculated using a 4-parameter logistic nonlinear regression model in GraphPad Prism.
row,Structure (SMILES),pIC50
1,Nc1ncnc2c1c([C@H]1CCCO1)cn2[C@@H]1O[C@H](COc2ccc3ccc(N4CCC4)nc3c2)[C@@H](O)[C@@H]1F [I-225],5.00 to 6.00

# Same assay, conditions: Homo sapiens, MOLM-13, 96 h
row,Structure (SMILES),pIC50
1,CNc1ccc2cc(CC[C@H]3C[C@@H](n4ccc5c(N)ncnc54)[C@H](O)[C@@H]3O)ccc2n1 [I-111],5.00 to 6.00
2,Nc1ccc2cc(CC[C@H]3C[C@@H](n4ccc5c(N)ncnc54)[C@H](O)[C@@H]3O)ccc2n1 [I-125],5.00 to 6.00
3,Nc1ncnc2c1ccn2[C@@H]1C[C@H](CCc2ccc3nccnc3c2)[C@@H](O)[C@H]1O [I-130],> 6.00

# Molecular target: PRMT5-MEP50 (Homo sapiens, UniProt O14744)
# Assay: PRMT5 Assay (PRMT5 biochemical assay)
# Conditions: not given
# In short: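 Radiometric methyltransferase read-out: after 60 min reaction, excess unlabelled SAM (15 μM) stops turnover and biotinylated H4 peptide (100 nM) carrying 3H-methyl from 250 nM 3H-SAM is captured on streptavidin flashplates (2 h, 25° C) for scintillation counting. Enzyme, 2.5 nM PRMT5-MEP50, was preincubated 5 min with compound in pH 8.0 Tris buffer with DTT and Tween.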
# Chain of PRMT5-MEP50 (O14744 whole entry): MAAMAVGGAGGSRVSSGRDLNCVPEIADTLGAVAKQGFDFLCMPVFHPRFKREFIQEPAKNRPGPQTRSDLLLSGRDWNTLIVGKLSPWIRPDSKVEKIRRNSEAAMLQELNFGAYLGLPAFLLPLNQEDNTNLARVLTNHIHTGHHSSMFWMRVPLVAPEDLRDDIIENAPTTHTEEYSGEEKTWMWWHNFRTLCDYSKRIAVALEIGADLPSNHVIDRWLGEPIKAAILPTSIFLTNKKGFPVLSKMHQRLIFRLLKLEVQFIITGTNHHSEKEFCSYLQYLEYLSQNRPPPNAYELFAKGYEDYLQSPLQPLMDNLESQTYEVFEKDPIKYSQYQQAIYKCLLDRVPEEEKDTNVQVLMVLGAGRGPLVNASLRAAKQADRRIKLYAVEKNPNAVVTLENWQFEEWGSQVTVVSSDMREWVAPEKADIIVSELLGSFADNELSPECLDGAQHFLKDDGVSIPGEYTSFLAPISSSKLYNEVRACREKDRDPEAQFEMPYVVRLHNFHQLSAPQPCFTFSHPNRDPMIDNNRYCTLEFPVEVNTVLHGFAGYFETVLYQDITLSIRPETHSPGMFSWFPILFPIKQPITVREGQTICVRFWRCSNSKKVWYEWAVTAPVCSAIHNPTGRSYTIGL
# Chain of PRMT5-MEP50 (Q9BQA1 whole entry partner): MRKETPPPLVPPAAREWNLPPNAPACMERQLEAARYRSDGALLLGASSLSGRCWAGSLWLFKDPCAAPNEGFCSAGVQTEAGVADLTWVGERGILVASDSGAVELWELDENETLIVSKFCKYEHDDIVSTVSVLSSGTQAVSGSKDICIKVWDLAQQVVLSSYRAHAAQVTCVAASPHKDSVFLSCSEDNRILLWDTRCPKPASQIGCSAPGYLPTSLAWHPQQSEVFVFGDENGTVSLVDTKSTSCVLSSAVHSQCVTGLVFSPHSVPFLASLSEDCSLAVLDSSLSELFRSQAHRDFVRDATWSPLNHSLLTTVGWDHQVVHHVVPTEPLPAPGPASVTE
row,Structure (SMILES),pIC50
1,CNc1ccc2ccc(OC[C@H]3O[C@@H](n4cc(-c5cccc(C)n5)c5c(N)ncnc54)[C@@H](F)[C@@H]3O)cc2n1 [I-229],7.00 to 8.00
2,CNc1ccc2ccc(OC[C@H]3O[C@@H](n4cc(-c5ccc(C)cn5)c5c(N)ncnc54)[C@@H](F)[C@@H]3O)cc2n1 [I-231],6.00 to 7.00

# Same assay, conditions: PRMT5 biochemical assay; read-out: PRMT5 IC50
row,Structure (SMILES),pIC50
1,CNc1ccc2cc(CC[C@H]3C[C@@H](n4ccc5c(N)ncnc54)[C@H](O)[C@@H]3O)ccc2n1 [I-111],> 8.00
2,Nc1ccc2cc(CC[C@H]3C[C@@H](n4ccc5c(N)ncnc54)[C@H](O)[C@@H]3O)ccc2n1 [I-125],> 8.00
3,Nc1ncnc2c1ccn2[C@@H]1C[C@H](CCc2ccc3nccnc3c2)[C@@H](O)[C@H]1O [I-130],> 8.00
4,CNc1ccc2ccc(OC[C@H]3O[C@@H](n4cc(CC5CC5)c5c(N)ncnc54)[C@H](O)[C@@H]3O)cc2n1 [I-142],7.00 to 8.00
5,Nc1ncnc2c1c([C@H]1CCCO1)cn2[C@@H]1O[C@H](COc2ccc3ccc(N4CCC4)nc3c2)[C@@H](O)[C@@H]1F [I-225],< 6.00
